From article PMC12049818, “Identification of NUV-244 as a PNPLA3 I148M degrading small molecule” (iScience, 2025)
Where two headings read alike, the source gives them in different places.

What was measured:
[1] = system: Huh7 cells expressing PNPLA3 I148M-tagRFP; experiment: Lipid droplet dispersion / normalization of lipid droplet morphology in Huh7 PNPLA3 I148M-tagRFP cells; type: cell-based, human
From the text: During the HTS we observed that PNPLA3 I148M-tagRFP expression altered the morphology of lipid droplets compared to the Huh7 parental control cells. PNPLA3 I148M-tagRFP expression leads to clustering of large lipid droplets around the nucleus and a reduction of small cytoplasmic lipid droplets, which is reflected by changes (lowering) in the number of lipid droplets scorable by the lipid droplet detection algorithm per cell (Figures 4A and 4B, Video S1). Indeed, a role for PNPLA3 I148M in the regulation of lipid droplet morphology is known.[12]^,[13]^,[15]^,[16]^,[21]^,[33] We speculated that reduction of PNPLA3 I148M-tagRFP on lipid droplets of Huh7 cells should therefore restore lipid droplet morphology back to the WT situation in the parental cell line. For this we analyzed all hits at the retest stage in the primary assay. […]
Images were analyzed using Harmony (Revvity) and MetaXpress software (Molecular Devices, USA) to quantify lipid droplet morphology and PNPLA3 I148M-tagRFP intensity.
Assay plates were evaluated based on Z’ scores (>0.6) and signal-to-background ratio (>12) using Genedata Screener® for HTS and Condoseo modules (Genedata, Switzerland). […] Automated image analysis routines were set up to quantify the number, morphology and intensity of nuclei, lipid droplets and the intensity of PNPLA3 I148M-tagRFP on lipid droplets. […]

[2] = system: Huh7 cells; experiment: Total nuclear count in Huh7 cells; type: cell-based, human; conditions: effective concentrations
Experimental: Indeed, NUV-244 has no effect on total nuclear count at effective concentrations in Huh7 cells and we frequently observed mitotic cells in the Hoechst channel even after 24h incubation (data not shown). This indicates low toxicity of NUV-244 at effective concentrations. We validated this by recording the growth curves of different cell lines upon NUV-244 incubation and found no effects of 1μM or 5μM NUV-244 on the proliferative capacity of Hep3B cells, or Huh7 and LX-2 cells compared to DMSO treated cells (Figure 6A). PNPLA3 I148M expression has been reported to sensitize cells against lipotoxicity and to induce mitochondrial dysfunction.[32]^,[34]^,[35]^,[36]^,[37]
Assay plates were evaluated based on Z’ scores (>0.6) and signal-to-background ratio (>12) using Genedata Screener® for HTS and Condoseo modules (Genedata, Switzerland). Normalization, quality control, and fitting curves for EC50 determination of tested compounds were performed with Genedata Screener® for high-content screening and Genedata Condoseo modules (Genedata AG, Basel, Switzerland). More than 820K cpds were screened on 791 1536W plates in 11 runs covering three weeks of primary HTS. Automated image analysis routines were set up to quantify the number, morphology and intensity of nuclei, lipid droplets and the intensity of PNPLA3 I148M-tagRFP on lipid droplets. […]

[3] = molecular target: T1, PNPLA2 (Homo sapiens, UniProt Q96AD5); experiment: Huh7 PNPLA2 immunofluorescence counter assay (PNPLA2 on lipid droplets); type: cell-based; design: immunofluorescence against endogenous PNPLA2 on lipid droplets in Huh7 cells; endogenous in cells; host or cells: Huh7; conditions: for EC50: read-out: EC50 Huh7, PNPLA2 IF
T1 sequence (Q96AD5 1-504): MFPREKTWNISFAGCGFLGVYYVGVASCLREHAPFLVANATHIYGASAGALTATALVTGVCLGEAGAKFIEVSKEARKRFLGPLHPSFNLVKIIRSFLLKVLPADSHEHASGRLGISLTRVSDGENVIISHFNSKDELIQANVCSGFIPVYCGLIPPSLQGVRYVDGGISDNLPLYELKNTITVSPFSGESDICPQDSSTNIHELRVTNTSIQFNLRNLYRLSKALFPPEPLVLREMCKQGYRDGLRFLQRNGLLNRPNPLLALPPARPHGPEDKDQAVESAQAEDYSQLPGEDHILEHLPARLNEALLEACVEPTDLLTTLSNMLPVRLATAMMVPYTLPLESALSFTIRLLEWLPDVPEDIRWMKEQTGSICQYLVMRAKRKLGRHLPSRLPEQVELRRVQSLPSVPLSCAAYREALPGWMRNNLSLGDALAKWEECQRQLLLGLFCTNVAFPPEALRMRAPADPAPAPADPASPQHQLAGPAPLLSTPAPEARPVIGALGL
Experimental: These efforts led to the identification of NUV-244, a thiazolecarboxamide (Figure 2A).
Cells were fixed with 4% paraformaldehyde for 15 minutes at room temperature. Cells were blocked with 0.2 M glycine, 0.1 mg/mL saponin, and 30 mg/mL bovine serum albumin (BSA) (all Sigma Aldrich) in PBS for 1 hour. Cells were washed 1x with washing buffer (0,1 mg/ml saponin + 1 mg/ml Bovine serum albumin) using a Blue Washer (Blue Cat Bio). Mouse anti-human ADPN (PNPLA3, C-8, #sc-390252, Santa Cruz) and rabbit anti-human PNPLA2 (Sigma Aldrich, #HPA055173-25UL) primary antibodies and appropriate secondary antibodies conjugated with Alexa-Fluor 647 (Jackson ImmunoResearch) were used. All antibodies were diluted in 0.1 mg/ml Saponin + 1 mg/ml Bovine serum albumin. Incubation with primary antibodies was over night at 4°C. Cells were stained simultaneously with the secondary antibody and Hoechst 33342 (final 2 μg/ml, Biotium) for 1h at room temperature in the dark. For Staining of lipid droplets 38 nM BODIPY was used for 30 minutes at room temperature.
Images were acquired by an Opera Phenix confocal spinning disc microscope system (Revvity, Waltham, MA, USA) with a 20x or 40x water objective at 405 nm (Hoechst), 488 nm (BODIPY) and 647 nm. Quantification was carried out with the Harmony (Revvity, Waltham, MA, USA) or MetaXpress software (Molecular Devices). Normalization, quality control, and fitting curves for EC50 determination of tested compounds were performed with Genedata Screener® for high-content screening and Genedata Condoseo modules (Genedata AG, Basel, Switzerland).

Cc1cccc(Cc2nc(C)c(C(=O)Nc3cc(O)ccc3Cl)s2)c1 [NUV-244]
appearance of small mobile lipid droplets (time-lapse) ([1]; 5μM for 24h, Huh7 expressing PNPLA3 I148M): partially restore
EC50 ([1]; Homo sapiens, Huh-7, resynthesis, representative curve, Figure 4C, read-out: EC50 [M] Lipid droplet aggregates): 4.84e-07 M
effect on total nuclear count [2]: no effect
effect on PNPLA2 staining on lipid droplets ([3]; 1μM, Huh7): no effect
EC50 ([3]; HTS batch (hit)): > 18 µM
effect on PNPLA2 localization to lipid droplets ([3]; Huh7 cells, dose-response): no effect
EC50 ([3]; resynthesis batch): > 17 µM
EC50 Huh7 PNPLA2 IF (resynthesis) ([3]; resynthesis batch, result in words): no activity
